Target: MK2 (Homo sapiens, UniProt P49137)
Test: Inhibition in solution assay of kinase MK2
Assay type: biochemical
Conditions: IC50 extrapolated from the dose dependent inhibition graphs (FIG. 6)
Source text: Determination of affinity of MK2 inhibitors (IC50) through inhibition in solution assay of kinase MK2 by various compounds of general formula I-VI

MK2, sequence (P49137 whole entry, species assumed): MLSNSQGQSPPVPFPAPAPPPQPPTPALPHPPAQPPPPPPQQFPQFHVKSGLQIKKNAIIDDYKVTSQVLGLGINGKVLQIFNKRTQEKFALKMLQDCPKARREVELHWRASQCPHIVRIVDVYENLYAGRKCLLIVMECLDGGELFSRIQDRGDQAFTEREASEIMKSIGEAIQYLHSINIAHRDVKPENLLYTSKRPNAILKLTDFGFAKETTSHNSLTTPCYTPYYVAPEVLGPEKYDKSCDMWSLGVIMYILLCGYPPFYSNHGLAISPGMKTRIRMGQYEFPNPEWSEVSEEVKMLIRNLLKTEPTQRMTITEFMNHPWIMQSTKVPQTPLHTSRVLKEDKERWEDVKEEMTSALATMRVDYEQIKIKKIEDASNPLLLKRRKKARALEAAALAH

IC50: 0.585 µM
SMILES: Cc1ccc(-c2ccc3c(ccc4sc5c(c43)NC[C@@H](C)NC5=O)n2)cn1 [PF 3644022]
